Data reported in patent publication US6420563B1, “Small molecule modulators of G protein-coupled receptor six” (Arena Pharmaceuticals, Inc., priority 1998, dated 2002).
Like-named read-outs stand apart in the source and are kept apart here.

Target: T1, GPR6:Gsα-Fusion Protein (Homo sapiens, UniProt P46095)
T1 construct: expressed in transfected cells
Assay: [35S]GTPγS membrane binding assay (Example 4A)
Format: biochemical
Method in brief: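 Membranes from stable 293 cells expressing the fusion protein were pre-incubated 5-10 min at RT with compounds (10 μM final) in GDP buffer. [35S]GTPγS (0.6 nM as added) was then bound for 60 min at RT and counted after centrifugation. Inverse agonism was scored as reduced receptor-driven GTPγS binding.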

T1 sequence (P46095 with tags, fused parts or gaps): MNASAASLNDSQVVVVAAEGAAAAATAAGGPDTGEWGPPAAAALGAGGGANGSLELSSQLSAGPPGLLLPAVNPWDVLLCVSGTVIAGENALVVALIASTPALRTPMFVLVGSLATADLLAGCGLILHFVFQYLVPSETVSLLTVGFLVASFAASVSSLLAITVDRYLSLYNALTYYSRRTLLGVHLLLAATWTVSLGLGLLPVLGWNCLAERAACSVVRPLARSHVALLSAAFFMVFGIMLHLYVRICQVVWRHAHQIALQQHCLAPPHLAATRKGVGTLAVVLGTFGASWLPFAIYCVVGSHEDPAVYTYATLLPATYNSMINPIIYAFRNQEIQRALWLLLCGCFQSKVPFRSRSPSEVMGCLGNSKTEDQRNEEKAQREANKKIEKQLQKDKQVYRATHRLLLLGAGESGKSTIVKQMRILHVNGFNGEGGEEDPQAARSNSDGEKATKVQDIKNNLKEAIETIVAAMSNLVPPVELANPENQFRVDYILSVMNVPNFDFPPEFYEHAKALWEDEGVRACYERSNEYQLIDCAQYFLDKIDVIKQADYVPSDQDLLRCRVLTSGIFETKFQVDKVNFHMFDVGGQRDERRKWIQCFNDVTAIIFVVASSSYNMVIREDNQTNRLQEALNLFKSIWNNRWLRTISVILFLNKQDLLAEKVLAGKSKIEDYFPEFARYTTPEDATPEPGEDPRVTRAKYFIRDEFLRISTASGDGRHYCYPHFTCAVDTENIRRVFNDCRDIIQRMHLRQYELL

IC50 (mean +/- standard deviation (number of assays in brackets), read-out: IC50 Values GTP Assay Example 4A): 420 nM | IC50 (representative IC50 curve, assay protocol of Example 4A, read-out: IC50 value against the GPR6 receptor (FIG. 4)): 150 nM
Compound: O=C(N=C1SSC2=NCCN21)c1cccs1 [ARE112, N-(5,6-dihydro-3H-imidazo[2,1-c]-1,2,4-dithiazol-3-ylidene)-thiophen-2-carboxamide]
